How the values were obtained:
Plasmodium falciparum [1] = experiment: Antimalarial activity against chloroquine-sensitive Plasmodium falciparum 3D7 incubated for 72 hrs by SYBR Green 1 assay; type: functional, organism-based; details: 3D7, 72 h
Plasmodium falciparum [2] = experiment: Antimalarial activity against chloroquine-resistant Plasmodium falciparum K1 incubated for 72 hrs by SYBR Green 1 assay; type: functional, organism-based; details: K1, 72 h
[3] = Cytotoxicity against african green monkey Vero cells after 72 hrs by MTT assay; type: cell-based; details: chlorocebus sabaeus
[4] = Selectivity index, ratio of CC50 for african green monkey Vero cells to IC50 for chloroquine-sensitive Plasmodium falciparum 3D7; type: functional
[5] = Selectivity index, ratio of CC50 for african green monkey Vero cells to IC50 for chloroquine-resistant Plasmodium falciparum K1; type: functional

Structure (SMILES)	IC50 (Plasmodium falciparum [1])	IC50 (Plasmodium falciparum [2])	CC50 at 72 h [3]	Ratio CC50/IC50 [4]	Ratio CC50/IC50 [5]
CNC1=C([N+](=O)[O-])C(c2ccc(N3CCCN(c4ccnc5cc(Cl)ccc45)CC3)cc2)c2ccccc2O1 (stereo not drawn)	> 5 µM	> 5 µM	91.4 µM	<18.3	–
CNC1=C([N+](=O)[O-])C(c2ccc(N3CCN(c4ccnc5cc(Cl)ccc45)CC3)cc2)c2cc(Cl)cc(Cl)c2O1 (stereo not drawn)	3.92 µM	1.45 µM	97.8 µM	24.9	67.4
CNC1=C([N+](=O)[O-])C(c2ccc(N3CCN(c4ccnc5cc(Cl)ccc45)CC3)cc2)c2cc(OC)ccc2O1 (stereo not drawn)	2.48 µM	4.25 µM	81.9 µM	33	19.3
CNC1=C([N+](=O)[O-])C(c2ccc(N3CCN(c4ccnc5cc(Cl)ccc45)CC3)cc2)c2cc([N+](=O)[O-])ccc2O1 (stereo not drawn)	0.62 µM	1.78 µM	31.9 µM	51.4	17.9
CNC1=C([N+](=O)[O-])C(c2ccc(N3CCN(c4ccnc5cc(Cl)ccc45)CC3)cc2)c2cc(Br)ccc2O1 (stereo not drawn)	1.88 µM	1.75 µM	88.6 µM	47.1	50.6
O=[N+]([O-])C1=C(NCCc2ccccc2)Oc2ccccc2C1c1ccc(N2CCN(c3ccnc4cc(Cl)ccc34)CC2)cc1 (stereo not drawn)	3.31 µM	1.74 µM	131 µM	39.6	75.5
CNC1=C([N+](=O)[O-])C(c2ccc(N3CCN(c4ccnc5cc(Cl)ccc45)CC3)cc2)c2c(C=O)c(C)cc(Cl)c2O1 (stereo not drawn)	2.34 µM	0.87 µM	84 µM	35.8	96.5
Clc1ccc2c(N3CCCN(c4ccccc4)CC3)ccnc2c1	3.98 µM	4.47 µM	148 µM	37.1	33.1
CNC1=C([N+](=O)[O-])C(c2ccc(N3CCCN(c4ccnc5cc(Cl)ccc45)CC3)cc2)c2cc(Cl)ccc2O1 (stereo not drawn)	0.29 µM	0.496 µM	77 µM	265.4	155.2
Clc1ccc2c(N3CCN(c4ccccc4)CC3)ccnc2c1	2.69 µM	2.49 µM	179 µM	66.3	71.7
CNC1=C([N+](=O)[O-])C(c2ccc(N3CCCN(c4ccnc5cc(Cl)ccc45)CC3)cc2)c2cc(Br)ccc2O1 (stereo not drawn)	2.24 µM	1.27 µM	> 200 µM	>89.3	>157.5
CNC1=C([N+](=O)[O-])C(c2ccc(N3CCN(c4ccnc5cc(Cl)ccc45)CC3)cc2)c2cccc(OC)c2O1 (stereo not drawn)	2.47 µM	2.4 µM	21.8 µM	8.8	9.1
CCOc1cccc2c1OC(NC)=C([N+](=O)[O-])C2c1ccc(N2CCN(c3ccnc4cc(Cl)ccc34)CC2)cc1 (stereo not drawn)	2.93 µM	2.95 µM	40.4 µM	13.7	13.6
O=[N+]([O-])C1=C(NCc2ccccc2)Oc2ccccc2C1c1ccc(N2CCN(c3ccnc4cc(Cl)ccc34)CC2)cc1 (stereo not drawn)	> 5 µM	> 5 µM	66.5 µM	<13.3	<13.3
CCCCNC1=C([N+](=O)[O-])C(c2ccc(N3CCN(c4ccnc5cc(Cl)ccc45)CC3)cc2)c2ccccc2O1 (stereo not drawn)	3.09 µM	3.57 µM	107 µM	34.6	29.9
CNC1=C([N+](=O)[O-])C(c2ccc(N3CCN(c4ccnc5cc(Cl)ccc45)CC3)cc2)c2cc(Cl)ccc2O1 (stereo not drawn)	1.37 µM	2.99 µM	74.5 µM	54.3	24.9
CNC1=C([N+](=O)[O-])C(c2ccc(N3CCN(c4ccnc5cc(Cl)ccc45)CC3)cc2)c2cc(Br)cc(Br)c2O1 (stereo not drawn)	> 5 µM	2.93 µM	> 200 µM	–	>68.2
CNC1=C([N+](=O)[O-])C(c2ccc(N3CCN(c4ccnc5cc(Cl)ccc45)CC3)cc2)c2ccccc2O1 (stereo not drawn)	1.11 µM	3.38 µM	> 200 µM	>180.2	>59.2

From ChEMBL document CHEMBL3616449, “Synthesis, in vitro and in silico antimalarial activity of 7-chloroquinoline and 4H-chromene conjugates” (Bioorg Med Chem Lett, 2015)
